{"source": "patent US8258100B2", "about": "“Ligand/lytic peptide methods of use” (Board of Supervisors of Louisiana State University and …, priority 1997, dated 2012)", "key": {"[1]": {"system": "LH receptors on the target granulosa cells", "test": "steroid hormone production by granulosa cells", "assay_type": "cell-based, bovine", "conditions": "data not shown", "excerpt": "(§1) Stimulation of target cell hormone production was not required for cell lysis."}, "LH receptors": {"biological_target": "T1, LH receptors (Bos taurus, UniProt Q28005)", "T1 construct": "endogenous in cells; host or cells: primary bovine granulosa cells from pre-ovulatory follicles", "T1 sequence (Q28005 27-701)": "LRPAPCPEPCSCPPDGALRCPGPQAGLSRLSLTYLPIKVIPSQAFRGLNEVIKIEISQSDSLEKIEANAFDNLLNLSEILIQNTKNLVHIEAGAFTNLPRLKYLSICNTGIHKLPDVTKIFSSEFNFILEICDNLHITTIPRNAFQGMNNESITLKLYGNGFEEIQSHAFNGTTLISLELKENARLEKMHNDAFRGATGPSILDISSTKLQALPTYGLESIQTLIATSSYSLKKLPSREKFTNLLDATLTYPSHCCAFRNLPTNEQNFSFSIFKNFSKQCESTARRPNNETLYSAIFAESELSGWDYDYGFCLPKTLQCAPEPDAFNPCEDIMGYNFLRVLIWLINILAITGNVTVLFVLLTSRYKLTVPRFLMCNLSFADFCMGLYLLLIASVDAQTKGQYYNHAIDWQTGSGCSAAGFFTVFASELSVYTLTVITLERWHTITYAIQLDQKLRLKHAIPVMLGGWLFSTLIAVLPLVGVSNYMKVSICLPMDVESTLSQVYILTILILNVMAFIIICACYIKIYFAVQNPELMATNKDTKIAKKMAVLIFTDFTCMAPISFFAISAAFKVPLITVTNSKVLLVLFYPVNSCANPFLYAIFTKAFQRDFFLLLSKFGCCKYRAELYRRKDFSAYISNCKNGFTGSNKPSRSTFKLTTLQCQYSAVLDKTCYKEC", "test": "binding of bLH fragment to LH receptors on granulosa cells", "parameters": "species or system bovine", "conditions": "data not shown", "excerpt": "as §1"}, "[2]": {"system": "Sprague-Dawley female rats", "test": "Sprague-Dawley female rats, single intravenous treatment, necropsy at 48 or 96 hours, PAS stain of pituitary", "assay_type": "in vivo, rat", "conditions": "D-hecate 674 μg, GnRH 334 μg, GnRH-hecate 1 mg", "method": "Eight sexually mature, Sprague-Dawley female rats were randomly assigned to one of eight treatments. Each group of rats received a single treatment intravenously, as described below. Rats were sacrificed and necropsied either 48 or 96 hours after treatment. The ovaries, uterus, pancreas, liver, spleen, lungs, heart, thyroid, and adrenal glands were fixed in 10% buffered formalin; sectioned; and stained with H&E (hematoxylin and eosin) stain; except that the pituitary glands were stained with PAS (periodic acid-Schiff) stain with no counter-stain. The treatments were selected so that each animal received an equimolar amount of the compound with which it was treated."}, "Diatraea saccharalis": {"system": "Diatraea saccharalis", "test": "fertility of sugar cane borer after inoculation of late-stage pupae", "assay_type": "in vivo", "conditions": "10 pupae inoculated, 1.0 μL of 1.35 mM peptide in saline", "method": "Late-stage Diatraea saccharalis (sugar cane borer) pupae were inoculated with 1.0 μL of saline solution containing 1.35 mM concentration of peptide as stated, or saline alone as control. The pupae were allowed to complete metamorphosis. […] Adult female moths were allowed to mate with treated males, and then lay eggs. The viability of the eggs was measured by counting the number hatching into larvae."}, "GnRH receptor": {"biological_target": "T2, GnRH receptor (Rattus norvegicus, UniProt P30969)", "T2 construct": "specifically displaced radiolabelled monoiodinated-GnRH from rat pituitary membranes; from tissue; host or cells: rat pituitary membranes", "T2 sequence (P30969 1-327)": "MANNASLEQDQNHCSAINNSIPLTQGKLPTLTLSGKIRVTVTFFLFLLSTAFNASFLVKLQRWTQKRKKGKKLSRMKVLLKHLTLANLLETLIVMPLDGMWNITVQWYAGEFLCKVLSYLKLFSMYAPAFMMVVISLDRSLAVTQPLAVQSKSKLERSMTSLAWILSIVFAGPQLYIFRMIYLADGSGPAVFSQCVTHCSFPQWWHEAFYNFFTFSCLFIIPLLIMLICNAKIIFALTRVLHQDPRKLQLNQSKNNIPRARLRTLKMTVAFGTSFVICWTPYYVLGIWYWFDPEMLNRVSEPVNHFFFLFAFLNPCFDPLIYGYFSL", "test": "displacement of radiolabelled monoiodinated-GnRH from rat pituitary membranes", "assay_type": "binding", "excerpt": "We also synthesized D-Lys^6GnRH (SEQ. ID NO. 13), so that hecate could be conjugated to the D-Lys^6, a position that could minimize interference with binding of the GnRH domain to the GnRH receptor. These synthetic peptides specifically displaced radiolabelled monoiodinated-GnRH from rat pituitary membranes."}, "DU145 cells": {"system": "DU145 cells", "test": "in vitro lysis of human prostate cancer cells, Trypan blue exclusion", "assay_type": "cell-based", "conditions": "22 hours; GnRH-hecate 50 μM; free hecate 30 μM; hecate-bLH 90 or 60 μM", "excerpt": "(§2) LNCaP FGC and DU145 human prostate cancer cell lines were purchased from the American Type Culture Collection (ATCC, Rockville Md.), ATCC accession numbers CRL 1740 and HTB-81, respectively. The LNCaP FGC adenocarcinoma cell line was originally obtained from a person. LNCaP FGC cells are sensitive to dihydrotestosterone and to estrogens (A+). The DU145 carcinoma was originally isolated from the brain of a person with metastatic carcinoma of the prostate; this cell line is not sensitive to steroid hormones (A−).\n(§3) Cells were detached from culture flasks, and 1000 cells/well were transferred to 24 well culture plates. The cells were incubated for 24 hours with 10% calf serum. Cells were subsequently incubated without serum for 48 hours. Cells were then incubated for 22 hours with one of the following treatments:\n(§4) Trypan blue exclusion was used to assess viability of the cells after treatment. […] However, treatment with a lytic peptide alone may not be selective in vivo unless specific cell types are separately stimulated, for example by hormones controlling their activity."}, "LNCaP FGC cells": {"system": "LNCaP FGC cells", "test": "in vitro lysis of human prostate cancer cells, Trypan blue exclusion", "assay_type": "cell-based", "excerpt": "as §2, §3, §4"}, "[3]": {"system": "bovine small luteal cells", "test": "in vitro lysis of bovine small luteal cells (Trypan Blue exclusion, lactic dehydrogenase release)", "assay_type": "cell-based, cattle", "conditions": "22 hr", "method": "We studied in vitro lysis of bovine luteal cells with GnRH-hecate conjugate and with hecate-bLH conjugate (SEQ. ID NO. 12). (The bLH component of the conjugate is a 15-mer fragment of the beta chain of luteinizing hormone, SEQ. ID NO. 11). Small luteal cells were collected from cattle corpora lutea post-slaughter.\nSmall luteal cells in culture were incubated with one of the following treatments for 22 hours, and were then examined for viability using Trypan Blue exclusion and release of lactic dehydrogenase."}, "bovine granulosa cells": {"system": "bovine granulosa cells", "test": "in vitro lysis of bovine granulosa cells", "assay_type": "cell-based", "conditions": "1 μM", "excerpt": "We also studied in vitro lysis of bovine granulosa cells with GnRH-hecate conjugate and with hecate-bLH conjugate. Granulosa cells were isolated from bovine pre-ovulatory follicles. (Granulosa cells are hormonally active cells with numerous LH receptors.) Our experiments with granulosa cells were otherwise generally similar to those described above for Examples 24-31."}}, "note": "Where a SMILES comes first, the peptide text is derived from it."}
{"compound": "15-mer fragment of the bLH subunit: 15-mer fragment of the beta chain of luteinizing hormone, receptor binding site (SEQ. ID NO. 11) (SYAVALSCQCALCRR)", "values": [{"measurement": "production of steroid hormones", "setting": "[1]", "result": "did not initiate the production of steroid hormones"}, {"measurement": "binding to LH receptors on granulosa cells", "setting": "LH receptors", "result": "specifically bound to LH receptors"}]}
{"compound": "CC(C)C[C@@H](NC(=O)[C@@H](C)NC(=O)[C@@H](CCCCN)NC(=O)[C@@H](CCCCN)NC(=O)[C@@H](CC(C)C)NC(=O)[C@@H](C)NC(=O)[C@@H](CCCCN)NC(=O)[C@@H](CCCCN)NC(=O)[C@@H](CC(C)C)NC(=O)[C@@H](CCCCN)NC(=O)[C@@H](CCCCN)NC(=O)[C@@H](CC(C)C)NC(=O)[C@@H](C)NC(=O)[C@@H](CCCCN)NC(=O)[C@@H](CCCCN)NC(=O)[C@@H](CC(C)C)NC(=O)[C@@H](C)NC(=O)[C@@H](CCCCN)NC(=O)[C@@H](CC(C)C)NC(=O)[C@@H](C)NC(=O)[C@@H](CC(C)C)NC(=O)[C@@H](C)NC(=O)[C@H](N)Cc1ccccc1)C(=O)O", "note": "[D-hecate, reference compound] (HELM PEPTIDE1{[dF].[dA].[dL].[dA].[dL].[dK].[dA].[dL].[dK].[dK].[dA].[dL].[dK].[dK].[dL].[dK].[dK].[dA].[dL].[dK].[dK].[dA].[dL]}$$$$V2.0)", "values": [{"measurement": "gross lesions in the organs", "setting": "[2]", "result": "No gross lesions"}, {"measurement": "pupae completing metamorphosis into adult moths", "setting": "Diatraea saccharalis", "result": "Six"}]}
{"compound": "D-Lys^6GnRH-hecate: hecate conjugated to the D-Lys^6 of D-Lys^6GnRH", "values": [{"measurement": "displacement of radiolabelled monoiodinated-GnRH, as measured by cpm", "setting": "GnRH receptor; rat pituitary membranes", "result": "comparable to (and actually slightly greater than) displacement by native mammalian GnRH"}]}
{"compound": "D-Lys^6GnRH: GnRH analog with D-Lys at position 6 (SEQ. ID NO. 13)", "values": [{"measurement": "displacement of radiolabelled peptide relative to equimolar native GnRH", "setting": "GnRH receptor; molar basis over a 1000-fold concentration range (n=6)", "result": "187%±8%"}]}
{"compound": "hecate-bLH: conjugate of hecate and a 15-mer fragment of the beta chain of luteinizing hormone (SEQ. ID NO. 12) (FALALKALKKALKKLKKALKKALSYAVALSCQCALCRR)", "values": [{"measurement": "killing of cells (viability)", "setting": "DU145 cells", "result": "killed almost all DU145 cells"}, {"measurement": "killing of cells (viability)", "setting": "LNCaP FGC cells; 22 hours, GnRH-hecate 50 μM, hecate-bLH 90 or 60 μM", "result": "had little effect"}, {"measurement": "sensitivity of cells to conjugate", "setting": "LNCaP FGC cells; FSH pre-treatment, followed by 90 μM hecate-bLH", "result": "more sensitive to the hecate-bLH conjugate than those that were not pre-treated"}, {"measurement": "number of cells killed relative to hecate alone at the same concentrations", "setting": "[3]; 10, 5, 1 μM", "result": "approximately twice the number of cells as were killed by hecate alone"}, {"measurement": "lactic dehydrogenase activity (cell killing)", "setting": "[3]; versus hecate alone", "result": "killed a significantly greater number of cells than did hecate alone"}, {"measurement": "cell death of small luteal cells versus hecate alone", "setting": "[3]; all three doses (10, 5, 1 μM)", "result": "significant increases in cell death as compared to treatment with hecate alone"}, {"measurement": "levels of lactic dehydrogenase released", "setting": "bovine granulosa cells", "result": "significantly higher than the levels of enzyme released following treatment with 1 μM hecate alone"}, {"measurement": "number of target cells killed relative to hecate alone", "setting": "bovine granulosa cells", "result": "about twice the number of target cells as did hecate alone"}]}
